Laboratory results reported in patent publication US6479524B1, “Substituted aryl and heteroaryl derivatives, their production and their use as medicines” (Boehringer Ingelheim Pharma KG, priority 1998, dated 2002).

Tested on: human citrated plasma
Assay: aPTT time prolongation (clotting of human citrated plasma, Biomatic B10 coagulometer)
Assay type: biochemical
Settings: effective concentration at which the aPTT time is double compared with the control, 37° C.
Protocol: were investigated for their effect on prolonging the aPTT time as follows:
plasma, from human citrated blood.
Diethylbarbiturate acetate buffer, Behring Werke, Marburg (ORWH 60/61),
Biomatic B10 coagulometer, Desaga, Wiesloch.
The aPTT time was determined using a Biomatic B10 coagulometer made by Messrs. Sarstedt.
The test substance was placed in the test tubes prescribed by the manufacturer with 0.1 ml of human citrated plasma and 0.1 ml of PTT reagent. The mixture was incubated for three minutes at 37° C. The clotting reaction was started by the addition of 0.1 ml of calcium solution. The time is measured using the apparatus from the addition of the calcium solution up to the clotting of the mixture. Mixtures to which 0.1 ml of DBA buffer were added were used as the controls.

Row | Structure (SMILES) | aPTT time (ED200 in μM) [µM]
1 | CCOC(=O)Cc1cc(C#CCNc2ccc(C(=N)N)cc2)c(C)cc1C(=O)N1CCCC1C (racemic) [A, rac-4-{3-[5-ethoxycarbonylmethyl-2-methyl-4-(2-methyl-pyrrolidinocarbonyl)-phenyl]-propargylamino}benzamidine] | 0.23
2 | Cc1cc(C(=O)N2CCCC2C)c(C)cc1C#CCNc1ccc(C(=N)N)cc1 (racemic) [B, rac-4-{3-[2,5-dimethyl-4-(2-methyl-pyrrolidinocarbonyl)-phenyl]-propargylamino}benzamidine] | 0.45
3 | Cc1cc(C(=O)C(C)C)c(C)cc1C#CCNc1ccc(C(=N)N)cc1 [C, 4-[3-(2,5-dimethyl-4-isopropylcarbonyl-phenyl)propargyl-amino]benzamidine] | 0.97
4 | Cc1cc(C(=O)N(C)c2ccccn2)c(C)cc1C#CCNc1ccc(C(=N)N)cc1 [D, 4-{3-[2,5-dimethyl-4-(N-methyl-N-pyridin-2-yl-aminocarbonyl)-phenyl]propargylamino}benzamidine] | 0.23
5 | Cc1cc(C(=O)N(C)c2ccccn2)c(C)cc1CCCNc1ccc(C(=N)N)cc1 [E, 4-{3-[2,5-dimethyl-4-(N-methyl-N-pyridin-2-yl-aminocarbonyl)-phenyl]prop-1-ylamino}benzamidine] | 0.69
6 | Cc1cc(C#CCNc2ccc(C(=N)N)cc2)ccc1C(=O)N1CCCC1 [F, 4-[3-(3-methyl-4-pyrrolidinocarbonyl-phenyl)-propargyl-amino]-benzamidine] | 0.54
7 | CCN(CCC(=O)OC)C(=O)c1cc(C)c(C#CCNc2ccc(C(=N)N)cc2)cc1C [G, 4-{3-[2,5-dimethyl-4-(N-(2-methoxycarbonyl-ethyl)-N-ethyl-carbonylamino)-phenyl]-propargylamino}benzamidine] | 0.29
8 | Cc1cc(NC(=O)N(CC(=O)O)C(C)C)c(C)cc1C#CCNc1ccc(C(=N)N)cc1 [H, 4-{3-[2,5-dimethyl-4-(N-isopropyl-N-hydroxycarbonylmethyl-aminocarbonyl-amino)-phenyl]-propargylamino}-benzamidine] | 0.20
9 | Cc1cc(N(C(=O)CC(=O)O)C(C)C)c(C)cc1C#CCNc1ccc(C(=N)N)cc1 [I, 4-{3-[2,5-dimethyl-4-(N-isopropyl-N-hydroxycarbonylmethyl-carbonyl-amino)-phenyl]-propargylamino}-benzamidine] | 0.45
